Source: patent publication US5084082A, “Soybean plants with dominant selectable trait for herbicide resistance” (priority 1990, dated 1992)
“Also recorded” adds a separate entry of the source.

Experiments:
W20 = assay: Seed soak test with Compound 8; format: in vivo, soybean; conditions: W20, seeds soaked 16 hours in 2 ppm solution
Description: The second screening protocol was carried out as follows: samples of seed from W20 were tested for preemergence tolerance to Compound 8 by soaking seeds in a 2.0 ppm buffered solution of Compound 8 for 16 hours, rinsing, and planting in flats in a greenhouse.
The original W4-4 M2 plant was allowed to self pollinate, mature, and produced a family of M3 seeds. An M3 progeny test was then conducted to determine if the new resistance phenotype was heritable and if the M3 family was true-breeding or segregating for the new resistance trait. The M3 progeny of W4-4 were screened for resistance with the same seed soak technique used to select the original W4-4 M2 plant. Twenty seeds each of the W4-4 M3 family, W20 line, and Williams line were soaked for 16 hours in a solution of 2 ppm of Compound 8. Twenty additional seeds of Williams were soaked for 16 hours in plain tap water as a control treatment. Treated seeds were then washed for two minutes in running water. Each seed was then planted in a separate pot for ease of observation.

[1] = tested on: Williams-NMU-1 M2 seedlings; assay: Hydroponic selection of M2 seeds with Compound 1; format: in vivo, soybean; conditions: 100 ppb
Description: Four Modified Hydropot Solo units were prepared as described in the Detailed Description by filling the planting tanks with a 5 cm layer of pea gravel followed by a 10 cm layer of fine vermiculite. M2 seeds of the William-NMU-1 were densely planted (approx. 16,600 seeds per square meter) by placing the seeds in a single horizontal layer on top of the vermiculite and then covering the seeds with a second level 2.5 cm layer of vermiculite. The nutrient solution reservoir was filled with tap water supplemented with 100 ppb of Compound 1 as the selective agent. Plant tanks were irrigated with the Compound 1 solution for four 30 minute periods per day beginning at 12 midnight, 8 AM, 12 noon, and 4 pm. […] The W20 plant was gently removed from the from the hydroponic planting tank and transplanted into a 20 cm pot containing a standard peat-based potting mixture. […] This observation led the applicant to believe that W20 represented a new class of resistant mutants. W20 was allowed to reach maturity under greenhouse conditions and produce an M3 line that was also referred to as W20.
M2 seeds of the Williams-NMU-1 treatment (Table II) were densely planted (approximately 16,600 seeds Per m2) on top of a level 7 cm layer of granular vermiculite supported by the upper chamber of the planting tank of the previously described large hydroponic selection system. […]

[2] = tested on: Acetolactate synthase (ALS) from leaves of W23; assay: Test D ALS assay with chlorsulfuron; format: biochemical, soybean
Description: (§1) Acetolactate synthase (ALS) was extracted from leaves of soybean plants growing vegetatively. The leaves were homogenized in 4 volumes of buffer containing 100 mM hepes (pH 7.5), 1 mM sodium pyruvate, 0.5 mM magnesium chloride, 0.5 mM thiamine pyrophosphate, […], 10% glycerol, 5% PVPP, and 0.2% mercaptoethanol. The homogenate was filtered through cheese cloth and centrifuged at 20,000 g for 20 min. ALS was precipitated from the supernatant with ammonium sulfate. The enzyme was collected between 20 and 60% saturation by centrifugation at 20,000 g for 20 min. The pellet was resuspended in buffer containing 100 mM Hepes, 1 mM sodium pyruvate, and 0.5 mM magnesium chloride, and desalted on PD-10 columns (Pharmacia) equilibrated with the same buffer. ALS assays were carried out in a final volume of 0.5 mL at 30° C. The final reaction mixture contained 100 mM Hepes (pH 7.5), 1 mM magnesium chloride, 60 mM sodium pyruvate, 0.4 mM thiaminepyrophosphate, […], and various concentrations of chlorsulfuron. The assays were initiated with the addition of enzyme ([…]) and terminated with the addition of […] of 6N sulfuric acid. The acidified reaction mixture was heated to 60° C. for 15 min, after which 0.5 mL of 0.5% (W/V) creatine and 0.5 mL of 5% (W/V) napthol (freshly prepared in 2.5 N sodium hydroxide) were added. The reaction mixtures were heated for an additional 15 min at 60° C., and the absorbance was read at 525 nm. Data are expressed in terms of % control (minus Compound 1) activity and are the average of two replications. Fisher's least significant difference (LSD) value (at the 95% level of confidence) was calculated for each Compound 1 concentration to determine the significance of genotype mean differences.

[3] = tested on: Acetolactate synthase (ALS) from leaves of W20; assay: Test D ALS assay with chlorsulfuron; format: biochemical, soybean
Description: as §1

[4] = tested on: Acetolactate synthase (ALS) from leaves of W19; assay: Test D ALS assay with chlorsulfuron; format: biochemical, soybean
Description: as §1

[5] = tested on: Acetolactate synthase (ALS) from leaves of Williams 82; assay: Test D ALS assay with chlorsulfuron; format: biochemical, soybean
Description: as §1

[6] = tested on: Acetolactate synthase (ALS) from leaves of W28; assay: Test D ALS assay with chlorsulfuron; format: biochemical, soybean
Description: as §1

## COC(=O)c1cccnc1S(=O)(=O)NC(=O)Nc1nc(OC)cc(OC)n1 [Compound 8, Methyl 2-[[[[(4,6-dimethoxy-2-pyrimidinyl)amino]carbonyl]amino]sulfonyl]-3-pyridinecarboxylate]
W20
  seedling development after seed soak: uniformly inhibit growth of W20 beyond the stage of emergence and cotyledon expansion; also recorded: had not started to form true leaves

## COc1nc(C)nc(NC(=O)NS(=O)(=O)c2ccccc2Cl)n1 [Compound 1, 2-chloro-N-[[(4-methoxy-6-methyl-1,3,5-triazin-2-yl)amino]carbonyl]benzenesulfonamide]
[1]; Modified Hydropot Solo units, twelve days after planting
  effect on surrounding seedlings: lethal to the surrounding seedlings
[1]; large hydroponic unit, 8 days after planting
  effect on background of wild type seedlings: uniformly inhibited
[2]; W23, chlorsulfuron 10 mg/l-l
  uninhibited ALS activity (% of control): 55.3 % of control
[2]; W23, chlorsulfuron 20 mg/l-l
  uninhibited ALS activity (% of control): 46.3 % of control
[2]; W23, chlorsulfuron 50 mg/l-l
  uninhibited ALS activity (% of control): 38.9 % of control
[2]; W23, chlorsulfuron 100 mg/l-l
  uninhibited ALS activity (% of control): 37.4 % of control
[2]; W23, chlorsulfuron 200 mg/l-l
  uninhibited ALS activity (% of control): 34.0 % of control
[3]; W20, chlorsulfuron 10 mg/l-l
  uninhibited ALS activity (% of control): 50.6 % of control
[3]; W20, chlorsulfuron 20 mg/l-l
  uninhibited ALS activity (% of control): 35.2 % of control
[3]; W20, chlorsulfuron 50 mg/l-l
  uninhibited ALS activity (% of control): 31.1 % of control
[3]; W20, chlorsulfuron 100 mg/l-l
  uninhibited ALS activity (% of control): 20.8 % of control
[3]; W20, chlorsulfuron 200 mg/l-l
  uninhibited ALS activity (% of control): 19.0 % of control
[4]; W19, chlorsulfuron 10 mg/l-l
  uninhibited ALS activity (% of control): 60.7 % of control
[4]; W19, chlorsulfuron 20 mg/l-l
  uninhibited ALS activity (% of control): 54.5 % of control
[4]; W19, chlorsulfuron 50 mg/l-l
  uninhibited ALS activity (% of control): 48.7 % of control
[4]; W19, chlorsulfuron 100 mg/l-l
  uninhibited ALS activity (% of control): 45.7 % of control
[4]; W19, chlorsulfuron 200 mg/l-l
  uninhibited ALS activity (% of control): 40.8 % of control
[5]; WM 82, chlorsulfuron 10 mg/l-l
  uninhibited ALS activity (% of control): 41.1 % of control
[5]; WM 82, chlorsulfuron 20 mg/l-l
  uninhibited ALS activity (% of control): 26.3 % of control
[5]; WM 82, chlorsulfuron 50 mg/l-l
  uninhibited ALS activity (% of control): 15.0 % of control
[5]; WM 82, chlorsulfuron 100 mg/l-l
  uninhibited ALS activity (% of control): 11.1 % of control
[5]; WM 82, chlorsulfuron 200 mg/l-l
  uninhibited ALS activity (% of control): 8.5 % of control
[6]; W28, chlorsulfuron 10 mg/l-l
  uninhibited ALS activity (% of control): 54.6 % of control
[6]; W28, chlorsulfuron 20 mg/l-l
  uninhibited ALS activity (% of control): 46.1 % of control
[6]; W28, chlorsulfuron 50 mg/l-l
  uninhibited ALS activity (% of control): 42.8 % of control
[6]; W28, chlorsulfuron 100 mg/l-l
  uninhibited ALS activity (% of control): 36.4 % of control
[6]; W28, chlorsulfuron 200 mg/l-l
  uninhibited ALS activity (% of control): 34.3 % of control
